Assay results reported in ChEMBL document CHEMBL3132858, “6-Alkyl-, 6-aryl- or 6-hetaryl-7-deazapurine ribonucleosides as inhibitors of human or MTB adenosine kinase and potential antimycobacterial agents” (Medchemcomm, 2013).

tested on: Mycobacterium tuberculosis; assay: Antimycobacterial activity against Mycobacterium bovis BCG assessed as inhibition of microbial growth after 120 hrs by MTT assay; type: functional, organism-based; settings: variant bovis BCG

| Compound | IC50 |
| --- | --- |
| OC[C@H]1O[C@@H](n2cc(Cl)c3c(-c4ccco4)ncnc32)[C@H](O)[C@@H]1O | 89.2 µM |
| OC[C@H]1O[C@@H](n2ccc3c(-c4cc[nH]c4)ncnc32)[C@H](O)[C@@H]1O | 98.2 µM |
| CCc1ncnc2c1ccn2[C@@H]1O[C@H](CO)[C@@H](O)[C@H]1O | 88.8 µM |
| OC[C@H]1O[C@@H](n2ccc3c(Cc4ccccc4)ncnc32)[C@H](O)[C@@H]1O | > 100 µM |
| OC[C@H]1O[C@@H](n2cc(F)c3c(-c4c[nH]cn4)ncnc32)[C@H](O)[C@@H]1O | 11.7 µM |
| OC[C@H]1O[C@@H](n2ccc3c(-c4ccn[nH]4)ncnc32)[C@H](O)[C@@H]1O | 91.1 µM |
| OC[C@H]1O[C@@H](n2ccc3c(-c4ccco4)ncnc32)[C@H](O)[C@@H]1O | > 100 µM |
| OC[C@H]1O[C@@H](n2cc(Cl)c3c(-c4ccoc4)ncnc32)[C@H](O)[C@@H]1O | 97.1 µM |
| OC[C@H]1O[C@@H](n2ccc3c(-c4cccs4)ncnc32)[C@H](O)[C@@H]1O | > 100 µM |
| OC[C@H]1O[C@@H](n2cc(F)c3c(-c4ccc[nH]4)ncnc32)[C@H](O)[C@@H]1O | 45.8 µM |
| OC[C@H]1O[C@@H](n2ccc3c(-c4cc5ccccc5[nH]4)ncnc32)[C@H](O)[C@@H]1O | > 100 µM |
| OC[C@H]1O[C@@H](n2ccc3c(-c4cccc5c4sc4ccccc45)ncnc32)[C@H](O)[C@@H]1O | > 100 µM |
| OC[C@H]1O[C@@H](n2ccc3c(-c4cccc5c4oc4ccccc45)ncnc32)[C@H](O)[C@@H]1O | > 100 µM |
| OC[C@H]1O[C@@H](n2cc(Cl)c3c(-c4cccs4)ncnc32)[C@H](O)[C@@H]1O | 96.4 µM |
| OC[C@H]1O[C@@H](n2cc(F)c3c(-c4cc[nH]c4)ncnc32)[C@H](O)[C@@H]1O | > 100 µM |
| OCc1ncnc2c1ccn2[C@@H]1O[C@H](CO)[C@@H](O)[C@H]1O | 32.6 µM |
| COc1ccc(-c2ncnc3c2ccn3[C@@H]2O[C@H](CO)[C@@H](O)[C@H]2O)cc1 | 56.9 µM |
| OC[C@H]1O[C@@H](n2cc(F)c3c(-c4ccsc4)ncnc32)[C@H](O)[C@@H]1O | > 100 µM |
| OC[C@H]1O[C@@H](n2ccc3c(-c4c[nH]cn4)ncnc32)[C@H](O)[C@@H]1O | 15.6 µM |
| OC[C@H]1O[C@@H](n2cc(F)c3c(-c4nccs4)ncnc32)[C@H](O)[C@@H]1O | 69 µM |
| OC[C@H]1O[C@@H](n2cc(Cl)c3c(-c4ccc(F)cc4)ncnc32)[C@H](O)[C@@H]1O | 89.6 µM |
| OC[C@H]1O[C@@H](n2ccc3c(-c4ccccc4)ncnc32)[C@H](O)[C@@H]1O | 75.2 µM |
| OC[C@H]1O[C@@H](n2ccc3c(-c4ccoc4)ncnc32)[C@H](O)[C@@H]1O | 83.7 µM |

| Compound | IC50 |
| --- | --- |
| OC[C@H]1O[C@@H](n2ccc3c(-c4cccc5c4Oc4ccccc4S5)ncnc32)[C@H](O)[C@@H]1O | > 100 µM |
| OC[C@H]1O[C@@H](n2cc(F)c3c(-c4cccs4)ncnc32)[C@H](O)[C@@H]1O | > 100 µM |
| OC[C@H]1O[C@@H](n2cc(F)c3c(-c4ccccc4)ncnc32)[C@H](O)[C@@H]1O | 74.8 µM |
| OC[C@H]1O[C@@H](n2ccc3c(-c4cccnc4)ncnc32)[C@H](O)[C@@H]1O | > 100 µM |
| OC[C@H]1O[C@@H](n2ccc3c(-c4nccs4)ncnc32)[C@H](O)[C@@H]1O | 80.5 µM |
| CCCCCCCCCCCCCCCCCCOP(=O)(O)OC[C@H]1O[C@@H](n2ccc3c(-c4ccco4)ncnc32)[C@H](O)[C@@H]1O | > 100 µM |
| CCCCCCCCCCCCCCCCCCOP(=O)(O)OC[C@H]1O[C@@H](n2ccc3c(-c4ccoc4)ncnc32)[C@H](O)[C@@H]1O | 56.6 µM |
| OC[C@H]1O[C@@H](n2ccc3c(-c4ccc[se]4)ncnc32)[C@H](O)[C@@H]1O | > 100 µM |
| OC[C@H]1O[C@@H](n2ccc3c(-c4ccc(F)cc4)ncnc32)[C@H](O)[C@@H]1O | 93.8 µM |
| OC[C@H]1O[C@@H](n2cc(F)c3c(-c4ccoc4)ncnc32)[C@H](O)[C@@H]1O | 91.2 µM |
| OC[C@H]1O[C@@H](n2ccc3c(-c4cc5ccccc5s4)ncnc32)[C@H](O)[C@@H]1O | > 100 µM |
| OC[C@H]1O[C@@H](n2cc(Cl)c3c(-c4ccccc4)ncnc32)[C@H](O)[C@@H]1O | > 100 µM |
| OC[C@H]1O[C@@H](n2ccc3c(-c4ccsc4)ncnc32)[C@H](O)[C@@H]1O | 81 µM |
| OC[C@H]1O[C@@H](n2ccc3c(-c4ccc[nH]4)ncnc32)[C@H](O)[C@@H]1O | 56.4 µM |
| CCCCCCCCCCCCCCCCCCOP(=O)(O)OC[C@H]1O[C@@H](n2ccc3c(-c4ccsc4)ncnc32)[C@H](O)[C@@H]1O | 82.8 µM |
| OC[C@H]1O[C@@H](n2ccc3c(-c4cn[nH]c4)ncnc32)[C@H](O)[C@@H]1O | > 100 µM |
| CCCCCCCCCCCCCCCCCCOP(=O)(O)OC[C@H]1O[C@@H](n2ccc3c(-c4ccccc4)ncnc32)[C@H](O)[C@@H]1O | > 100 µM |
| CCCCCCCCCCCCCCCCCCOP(=O)(O)OC[C@H]1O[C@@H](n2ccc3c(-c4cc5ccccc5o4)ncnc32)[C@H](O)[C@@H]1O | 93.4 µM |
| OC[C@H]1O[C@@H](n2ccc3c(-c4ccccn4)ncnc32)[C@H](O)[C@@H]1O | 38.2 µM |
| OC[C@H]1O[C@@H](n2cc(Cl)c3c(-c4ccsc4)ncnc32)[C@H](O)[C@@H]1O | 99.6 µM |
| OC[C@H]1O[C@@H](n2cc(F)c3c(-c4ccco4)ncnc32)[C@H](O)[C@@H]1O | 73.2 µM |
| OC[C@H]1O[C@@H](n2ccc3c(-c4cc5ccccc5o4)ncnc32)[C@H](O)[C@@H]1O | > 100 µM |
